Test [1] has as its target T1, rMHJ_0461 (Mesomycoplasma hyopneumoniae, UniProt Q4A9M4). Briefly: fluorogenic aminopeptidase assay, leucine-AMC, […] min preincubation. It is filed as biochemical. Also noted: gene pepA; multimers of about 500 and 800 kDa. The conditions noted are these: read-out: % inhibition at 1 mM.
Test [2] addresses recombinant MHJ_0461 (Mycoplasma hyopneumoniae strain J). Briefly: native gel or EMSA; Blue Native PAGE of purified rMHJ_0461; complexes identified by LC-MS/MS of tryptic peptides. For orientation: Mobility shift assays separate free from complexed probe on a gel.
The target in test [3] is T1, rMHJ_0461. Also noted: gene pepA. The conditions noted are these: 50 uM substrate, 5 mM Mn2+, pH 7.2, 37 C.

`CC(C)C[C@H](NC(=O)[C@@H](O)[C@H](N)Cc1ccccc1)C(=O)O` [bestatin]: in test [1], the inhibition at 1000 µM amounted to 99%. Regarding recombinant MHJ_0461 (enzyme), in test [2], the stoichiometry N is more than 10 subunits. For `CSCC[C@H](N)C(=O)Nc1ccc2c(C)cc(=O)oc2c1` [methionine-AMC], in test [3], the “fluorogenic AMC release assay” value is reported as “leucine > methionine > phenylalanine > arginine > alanine > isoleucine > glycine > valine”. Turning to `CC(C)C[C@@H](N)[C@H](O)C(=O)N[C@H](C(=O)N[C@H](C(=O)N[C@@H](CC(=O)O)C(=O)O)C(C)C)C(C)C` [amastatin], the inhibition at 1000 µM in test [1] amounted to 69%.

In general, inhibition refers to the share of the control response that was lost under treatment. The stoichiometry N is the number of molecules, sites or subunits per partner or assembly.

Source of the values: paper PMC4313372, “MHJ_0461 is a multifunctional leucine aminopeptidase on the surface of Mycoplasma hyopneumoniae” (Open Biology, 2015).
